From PubChem BioAssay AID1259407 (Chemical Carcinogenesis Research Information System (CCRIS), 2018)
The source made the active and inactive calls. No rule for the calls is given here.

Tested on: CCRIS mutagenicity, Ames/micronucleus/aberration tests
Experiment: CCRIS mutagenicity studies
[1] = Test System: AMES SALMONELLA TYPHIMURIUM, Strain/Indicator: TA97, Metabolic Activation: NONE, Method: PREINCUBATION
[2] = Test System: AMES SALMONELLA TYPHIMURIUM, Strain/Indicator: TA98, Metabolic Activation: NONE, Method: STANDARD PLATE
[3] = Test System: AMES SALMONELLA TYPHIMURIUM, Strain/Indicator: TA1535, Metabolic Activation: NONE, Method: PREINCUBATION
[4] = Test System: AMES SALMONELLA TYPHIMURIUM, Strain/Indicator: TA1537, Metabolic Activation: NONE, Method: PREINCUBATION

O=[N+]([O-])O
mutagenic call [1]: inactive; negative
mutagenic call (Test System: AMES SALMONELLA TYPHIMURIUM, Strain/Indicator: TA97, Metabolic Activation: S-9, Method: PREINCUBATION): inactive; negative
mutagenic call (Test System: AMES SALMONELLA TYPHIMURIUM, Strain/Indicator: TA97A, Metabolic Activation: NONE, Method: PREINCUBATION): inactive; negative
mutagenic call (Test System: AMES SALMONELLA TYPHIMURIUM, Strain/Indicator: TA97A, Metabolic Activation: NONE, Method: STANDARD PLATE): inactive; negative
mutagenic call (Test System: AMES SALMONELLA TYPHIMURIUM, Strain/Indicator: TA97A, Metabolic Activation: RAT, LIVER, S-9, PHENOBARBITAL AND BETA-NAPHTHOFLAVONE, Method: PREINCUBATION): inactive; negative
mutagenic call (Test System: AMES SALMONELLA TYPHIMURIUM, Strain/Indicator: TA97A, Metabolic Activation: RAT, LIVER, S-9, PHENOBARBITAL AND BETA-NAPHTHOFLAVONE, Method: STANDARD PLATE): inactive; negative
mutagenic call [2]: inactive; negative
mutagenic call (Test System: AMES SALMONELLA TYPHIMURIUM, Strain/Indicator: TA98, Metabolic Activation: RAT, LIVER, S-9, AROCLOR 1254, Method: STANDARD PLATE): inactive; negative
mutagenic call (Test System: AMES SALMONELLA TYPHIMURIUM, Strain/Indicator: TA98, Metabolic Activation: RAT, LIVER, S-9, PHENOBARBITAL AND BETA-NAPHTHOFLAVONE, Method: PREINCUBATION): inactive; negative
mutagenic call (Test System: AMES SALMONELLA TYPHIMURIUM, Strain/Indicator: TA98, Metabolic Activation: RAT, LIVER, S-9, PHENOBARBITAL AND BETA-NAPHTHOFLAVONE, Method: STANDARD PLATE): inactive; negative
mutagenic call (Test System: AMES SALMONELLA TYPHIMURIUM, Strain/Indicator: TA100, Metabolic Activation: NONE, Method: STANDARD PLATE): inactive; negative
mutagenic call (Test System: AMES SALMONELLA TYPHIMURIUM, Strain/Indicator: TA100, Metabolic Activation: RAT, LIVER, S-9, AROCLOR 1254, Method: STANDARD PLATE): inactive; negative
mutagenic call (Test System: AMES SALMONELLA TYPHIMURIUM, Strain/Indicator: TA100, Metabolic Activation: RAT, LIVER, S-9, PHENOBARBITAL AND BETA-NAPHTHOFLAVONE, Method: PREINCUBATION): inactive; negative
mutagenic call (Test System: AMES SALMONELLA TYPHIMURIUM, Strain/Indicator: TA100, Metabolic Activation: RAT, LIVER, S-9, PHENOBARBITAL AND BETA-NAPHTHOFLAVONE, Method: STANDARD PLATE): inactive; negative
mutagenic call (Test System: AMES SALMONELLA TYPHIMURIUM, Strain/Indicator: TA102, Metabolic Activation: NONE, Method: PREINCUBATION): inactive; negative
mutagenic call (Test System: AMES SALMONELLA TYPHIMURIUM, Strain/Indicator: TA102, Metabolic Activation: S-9, Method: PREINCUBATION): inactive; negative
mutagenic call (Test System: AMES SALMONELLA TYPHIMURIUM, Strain/Indicator: TA102C, Metabolic Activation: NONE, Method: PREINCUBATION): inactive; negative
mutagenic call (Test System: AMES SALMONELLA TYPHIMURIUM, Strain/Indicator: TA102C, Metabolic Activation: NONE, Method: STANDARD PLATE): inactive; negative
mutagenic call (Test System: AMES SALMONELLA TYPHIMURIUM, Strain/Indicator: TA102C, Metabolic Activation: RAT, LIVER, S-9, PHENOBARBITAL AND BETA-NAPHTHOFLAVONE, Method: PREINCUBATION): inactive; negative
mutagenic call (Test System: AMES SALMONELLA TYPHIMURIUM, Strain/Indicator: TA102C, Metabolic Activation: RAT, LIVER, S-9, PHENOBARBITAL AND BETA-NAPHTHOFLAVONE, Method: STANDARD PLATE): inactive; negative
mutagenic call [3]: inactive; negative
mutagenic call (Test System: AMES SALMONELLA TYPHIMURIUM, Strain/Indicator: TA1535, Metabolic Activation: NONE, Method: STANDARD PLATE): inactive; negative
mutagenic call (Test System: AMES SALMONELLA TYPHIMURIUM, Strain/Indicator: TA1535, Metabolic Activation: RAT, LIVER, S-9, AROCLOR 1254, Method: STANDARD PLATE): inactive; negative
mutagenic call (Test System: AMES SALMONELLA TYPHIMURIUM, Strain/Indicator: TA1535, Metabolic Activation: RAT, LIVER, S-9, PHENOBARBITAL AND BETA-NAPHTHOFLAVONE, Method: PREINCUBATION): inactive; negative
mutagenic call (Test System: AMES SALMONELLA TYPHIMURIUM, Strain/Indicator: TA1535, Metabolic Activation: RAT, LIVER, S-9, PHENOBARBITAL AND BETA-NAPHTHOFLAVONE, Method: STANDARD PLATE): inactive; negative
mutagenic call [4]: inactive; negative
mutagenic call (Test System: AMES SALMONELLA TYPHIMURIUM, Strain/Indicator: TA1537, Metabolic Activation: NONE, Method: STANDARD PLATE): inactive; negative
mutagenic call (Test System: AMES SALMONELLA TYPHIMURIUM, Strain/Indicator: TA1537, Metabolic Activation: RAT, LIVER, S-9, AROCLOR 1254, Method: STANDARD PLATE): inactive; negative
mutagenic call (Test System: AMES SALMONELLA TYPHIMURIUM, Strain/Indicator: TA1537, Metabolic Activation: RAT, LIVER, S-9, PHENOBARBITAL AND BETA-NAPHTHOFLAVONE, Method: PREINCUBATION): inactive; negative
mutagenic call (Test System: AMES SALMONELLA TYPHIMURIUM, Strain/Indicator: TA1537, Metabolic Activation: RAT, LIVER, S-9, PHENOBARBITAL AND BETA-NAPHTHOFLAVONE, Method: STANDARD PLATE): inactive; negative
mutagenic call (Test System: AMES SALMONELLA TYPHIMURIUM, Strain/Indicator: TA1538, Metabolic Activation: NONE, Method: PREINCUBATION): inactive; negative
mutagenic call (Test System: AMES SALMONELLA TYPHIMURIUM, Strain/Indicator: TA1538, Metabolic Activation: NONE, Method: STANDARD PLATE): inactive; negative
mutagenic call (Test System: AMES SALMONELLA TYPHIMURIUM, Strain/Indicator: TA1538, Metabolic Activation: RAT, LIVER, S-9, AROCLOR 1254, Method: STANDARD PLATE): inactive; negative
mutagenic call (Test System: AMES SALMONELLA TYPHIMURIUM, Strain/Indicator: TA1538, Metabolic Activation: RAT, LIVER, S-9, PHENOBARBITAL AND BETA-NAPHTHOFLAVONE, Method: PREINCUBATION): inactive; negative
mutagenic call (Test System: AMES SALMONELLA TYPHIMURIUM, Strain/Indicator: TA1538, Metabolic Activation: RAT, LIVER, S-9, PHENOBARBITAL AND BETA-NAPHTHOFLAVONE, Method: STANDARD PLATE): inactive; negative
mutagenic call (Test System: E. COLI, Strain/Indicator: WP2, Metabolic Activation: NONE, Method: STANDARD PLATE): inactive; negative
mutagenic call (Test System: E. COLI, Strain/Indicator: WP2, Metabolic Activation: RAT, LIVER, S-9, AROCLOR 1254, Method: STANDARD PLATE): inactive; negative

Cc1cccc(N)c1
mutagenic call (Test System: AMES SALMONELLA TYPHIMURIUM, Strain/Indicator: TA97, Metabolic Activation: HAMSTER, LIVER, S-9, AROCLOR 1254 (10 OR 30%), Method: PREINCUBATION): inactive; negative
mutagenic call [1]: inactive; negative
mutagenic call (Test System: AMES SALMONELLA TYPHIMURIUM, Strain/Indicator: TA97, Metabolic Activation: RAT, LIVER, S-9, AROCLOR 1254 (10 OR 30%), Method: PREINCUBATION): inactive; negative
mutagenic call (Test System: AMES SALMONELLA TYPHIMURIUM, Strain/Indicator: TA98, Metabolic Activation: HAMSTER, LIVER, S-9, AROCLOR 1254 (10 OR 30%), Method: PREINCUBATION): inactive; negative
mutagenic call (Test System: AMES SALMONELLA TYPHIMURIUM, Strain/Indicator: TA98, Metabolic Activation: NONE, Method: PREINCUBATION): inactive; negative
mutagenic call (Test System: AMES SALMONELLA TYPHIMURIUM, Strain/Indicator: TA98, Metabolic Activation: RAT, LIVER, S-9, AROCLOR 1254 (10 OR 30%), Method: PREINCUBATION): inactive; negative
mutagenic call (Test System: AMES SALMONELLA TYPHIMURIUM, Strain/Indicator: TA100, Metabolic Activation: HAMSTER, LIVER, S-9, AROCLOR 1254 (10 OR 30%), Method: PREINCUBATION): inactive; negative
mutagenic call (Test System: AMES SALMONELLA TYPHIMURIUM, Strain/Indicator: TA100, Metabolic Activation: NONE, Method: PREINCUBATION): inactive; negative
mutagenic call (Test System: AMES SALMONELLA TYPHIMURIUM, Strain/Indicator: TA100, Metabolic Activation: RAT, LIVER, S-9, AROCLOR 1254 (10 OR 30%), Method: PREINCUBATION): inactive; negative
mutagenic call (Test System: AMES SALMONELLA TYPHIMURIUM, Strain/Indicator: TA1535, Metabolic Activation: HAMSTER, LIVER, S-9, AROCLOR 1254 (10 OR 30%), Method: PREINCUBATION): inactive; negative
mutagenic call [3]: inactive; negative
mutagenic call (Test System: AMES SALMONELLA TYPHIMURIUM, Strain/Indicator: TA1535, Metabolic Activation: RAT, LIVER, S-9, AROCLOR 1254 (10 OR 30%), Method: PREINCUBATION): inactive; negative
mutagenic call (Test System: AMES SALMONELLA TYPHIMURIUM, Strain/Indicator: TA1537, Metabolic Activation: HAMSTER, LIVER, S-9, AROCLOR 1254 (10 OR 30%), Method: PREINCUBATION): inactive; negative
mutagenic call [4]: inactive; negative
mutagenic call (Test System: AMES SALMONELLA TYPHIMURIUM, Strain/Indicator: TA1537, Metabolic Activation: RAT, LIVER, S-9, AROCLOR 1254 (10 OR 30%), Method: PREINCUBATION): inactive; negative

O=Nn1cc(CC(O)C(=O)O)c2ccccc21 (stereo not drawn)
mutagenic call [2]: active; positive
